Data taken from ChEMBL document CHEMBL1201862, “PubChem BioAssay data set” (2004).
Active and inactive are the calls of the source.

Tests used:
Streptokinase A = target: T1, Streptokinase A (Streptococcus pyogenes serotype M1, UniProt P10520); experiment: S. pyogenes streptokinase expression inhibitors, potency, dose response, plasminogen activation absorbance, OD405 (AID 1914); assay type: functional, Streptococcus pyogenes M1 GAS;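 further: secreted streptokinase activity via plasminogen activation per viability signal from cell pellet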
T1 sequence (P10520 whole entry): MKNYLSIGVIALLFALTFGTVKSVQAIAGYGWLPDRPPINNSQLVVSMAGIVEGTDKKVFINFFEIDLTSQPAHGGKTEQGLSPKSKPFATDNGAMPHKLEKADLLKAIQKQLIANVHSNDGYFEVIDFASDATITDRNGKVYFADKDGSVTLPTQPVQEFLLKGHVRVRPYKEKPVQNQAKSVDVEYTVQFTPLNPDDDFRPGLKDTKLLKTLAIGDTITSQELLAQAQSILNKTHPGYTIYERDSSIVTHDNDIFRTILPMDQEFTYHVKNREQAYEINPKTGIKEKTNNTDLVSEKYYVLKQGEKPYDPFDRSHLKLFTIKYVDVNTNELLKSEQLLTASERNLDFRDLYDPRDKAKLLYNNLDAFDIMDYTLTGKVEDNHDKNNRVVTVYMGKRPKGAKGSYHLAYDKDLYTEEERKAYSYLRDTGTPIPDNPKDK

[1] = test system: Streptococcus sp. 'group A'; experiment: growth inhibition of control SK(-) GAS strain, dose response, counter-screen for streptokinase expression inhibitor project, luminescence, kanamycin, BacTiterGlo, confirmation (AID 1900); assay type: functional, organism-based
Streptococcus [2] = experiment: Group A Streptococcus viability loss, dose response, counter-screen for streptokinase expression inhibitor project, luminescence, BacTiterGlo (AID 1915); assay type: functional, organism-based;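 further: potency for reduction of bacterial viability or growth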
Streptococcus [3] = experiment: Luminescence Microorganism-Based Dose Response Follow up to Identify Compounds Cytotoxic to Streptococcus. [Related pubchem assays: 1677 (Project Summary), 1915, 1914, 1902 (Retest at Dose), 1900 (Counter Screen), 1662 (Primary HTS)]; assay type: functional, organism-based
Cytochrome P450 2D6 = Cytochrome P450 2D6 (Homo sapiens, UniProt P10635); experiment: qHTS Assay for Inhibitors and Substrates of Cytochrome P450 2D6. [Related pubchem assays: 410 ]; assay type: ADME; settings: read-out: Potency
Cytochrome P450 2D6, sequence (P10635 whole entry): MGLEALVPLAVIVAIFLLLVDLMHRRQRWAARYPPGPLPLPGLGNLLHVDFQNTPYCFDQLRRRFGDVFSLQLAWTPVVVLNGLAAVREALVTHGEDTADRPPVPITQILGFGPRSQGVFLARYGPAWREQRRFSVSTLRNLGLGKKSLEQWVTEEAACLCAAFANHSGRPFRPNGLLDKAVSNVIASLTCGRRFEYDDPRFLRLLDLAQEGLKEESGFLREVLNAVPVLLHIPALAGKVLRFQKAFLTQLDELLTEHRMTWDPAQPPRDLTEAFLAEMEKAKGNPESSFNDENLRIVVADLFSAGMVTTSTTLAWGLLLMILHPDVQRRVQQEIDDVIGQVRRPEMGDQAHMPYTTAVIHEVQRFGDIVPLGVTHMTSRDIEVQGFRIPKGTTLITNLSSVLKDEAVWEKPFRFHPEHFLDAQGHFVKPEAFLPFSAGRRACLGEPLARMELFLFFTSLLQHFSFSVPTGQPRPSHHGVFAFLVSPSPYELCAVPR

Bcl-2-like protein 10 = target: T2, Bcl-2-like protein 10 (Homo sapiens, UniProt Q9HD36); experiment: Biochemical TR3 FP assay of Bcl-B inhibitor potency, EC50 (AID 1243); assay type: functional
T2 sequence (Q9HD36 whole entry): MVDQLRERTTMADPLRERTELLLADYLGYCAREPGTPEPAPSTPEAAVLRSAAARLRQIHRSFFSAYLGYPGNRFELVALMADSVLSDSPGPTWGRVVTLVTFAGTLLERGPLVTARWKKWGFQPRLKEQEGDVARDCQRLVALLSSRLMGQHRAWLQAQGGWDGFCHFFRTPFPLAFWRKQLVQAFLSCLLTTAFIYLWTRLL

[4] = target: Serine/threonine-protein phosphatase PP1-alpha catalytic subunit (Homo sapiens, UniProt P62136); experiment: PP1 phosphatase inhibitors, dose response, biochemical, fluorescence (AID 2403);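 further: phosphatase turnover of OMFP into fluorescent 3-O-methylfluorescein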
Serine/threonine-protein phosphatase PP1-alpha catalytic subunit, sequence (P62136 whole entry): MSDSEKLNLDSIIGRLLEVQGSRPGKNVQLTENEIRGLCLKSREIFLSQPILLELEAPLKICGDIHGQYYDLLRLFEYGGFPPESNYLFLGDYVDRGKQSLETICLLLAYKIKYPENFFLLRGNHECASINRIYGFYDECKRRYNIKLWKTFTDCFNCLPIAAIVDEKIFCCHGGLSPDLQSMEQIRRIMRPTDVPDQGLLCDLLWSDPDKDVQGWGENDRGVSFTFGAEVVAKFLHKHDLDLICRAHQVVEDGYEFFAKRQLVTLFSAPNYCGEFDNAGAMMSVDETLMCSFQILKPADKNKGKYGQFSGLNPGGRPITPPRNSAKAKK

[5] = target: Serine/threonine-protein phosphatase (Homo sapiens, UniProt Q9BPW0); experiment: Counterscreen for inhibitors of PP1: fluorescence-based biochemical high throughput dose response assay to identify inhibitors of Protein Phosphatase 5 (PP5). [Related pubchem assays: 2034 (Summary (PP5 inhibitors)), 1987 (PP5 inhibitors in singlate), 2235 (PP1 inhibitors in singlate)]
Serine/threonine-protein phosphatase, sequence (Q9BPW0 whole entry): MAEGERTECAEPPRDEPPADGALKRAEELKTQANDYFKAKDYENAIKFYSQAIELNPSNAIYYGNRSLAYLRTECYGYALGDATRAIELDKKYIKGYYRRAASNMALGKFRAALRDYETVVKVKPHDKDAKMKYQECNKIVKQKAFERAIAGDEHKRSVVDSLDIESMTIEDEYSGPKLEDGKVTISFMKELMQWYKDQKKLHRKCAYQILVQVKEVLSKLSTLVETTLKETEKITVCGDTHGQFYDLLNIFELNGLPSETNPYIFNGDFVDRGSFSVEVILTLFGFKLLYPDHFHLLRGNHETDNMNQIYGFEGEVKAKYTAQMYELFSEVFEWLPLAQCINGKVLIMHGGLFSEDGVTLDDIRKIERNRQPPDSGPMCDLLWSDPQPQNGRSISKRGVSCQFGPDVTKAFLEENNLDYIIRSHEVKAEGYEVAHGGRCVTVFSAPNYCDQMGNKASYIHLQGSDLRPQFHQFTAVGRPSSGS

Estrogen receptor beta [6] = target: T3, Estrogen receptor beta (Homo sapiens, UniProt Q92731); experiment: ERβ–SRC-3 coactivator interaction inhibitors, confirmation, orthogonal assay, biochemical, ELISA, streptavidin-HRP readout (AID 1060)
T3 sequence (Q92731 whole entry): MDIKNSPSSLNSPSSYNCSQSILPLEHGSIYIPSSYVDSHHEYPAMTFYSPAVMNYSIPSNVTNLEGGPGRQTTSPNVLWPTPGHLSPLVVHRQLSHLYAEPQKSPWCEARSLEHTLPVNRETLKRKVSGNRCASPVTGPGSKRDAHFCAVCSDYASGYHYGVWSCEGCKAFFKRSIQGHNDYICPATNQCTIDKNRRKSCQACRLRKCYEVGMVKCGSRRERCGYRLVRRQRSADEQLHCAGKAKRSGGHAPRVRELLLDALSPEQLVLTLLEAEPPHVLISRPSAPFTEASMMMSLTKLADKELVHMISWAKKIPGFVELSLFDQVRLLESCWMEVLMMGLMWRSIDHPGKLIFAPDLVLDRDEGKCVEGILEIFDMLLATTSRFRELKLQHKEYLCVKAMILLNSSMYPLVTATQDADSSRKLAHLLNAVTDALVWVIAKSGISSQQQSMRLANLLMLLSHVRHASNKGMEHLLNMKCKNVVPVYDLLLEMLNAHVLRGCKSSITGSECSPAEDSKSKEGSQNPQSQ

[7] = target: Induced myeloid leukemia cell differentiation protein Mcl-1 (Homo sapiens, UniProt Q07820); assay type: functional
Induced myeloid leukemia cell differentiation protein Mcl-1, sequence (Q07820 whole entry): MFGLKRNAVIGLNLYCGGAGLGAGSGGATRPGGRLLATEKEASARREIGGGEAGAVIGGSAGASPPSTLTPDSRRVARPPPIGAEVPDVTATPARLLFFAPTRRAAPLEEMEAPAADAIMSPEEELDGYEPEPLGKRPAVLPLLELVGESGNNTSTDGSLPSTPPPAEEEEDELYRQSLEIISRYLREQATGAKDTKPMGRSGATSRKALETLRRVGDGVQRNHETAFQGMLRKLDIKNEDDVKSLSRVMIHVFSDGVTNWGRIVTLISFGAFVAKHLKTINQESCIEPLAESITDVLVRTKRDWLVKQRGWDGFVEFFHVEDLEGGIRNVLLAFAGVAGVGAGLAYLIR

Estrogen receptor = target: T4, Estrogen receptor (Homo sapiens, UniProt P03372);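 further: potency for inhibiting coactivator peptide recruitment to the receptor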
T4 sequence (P03372 whole entry): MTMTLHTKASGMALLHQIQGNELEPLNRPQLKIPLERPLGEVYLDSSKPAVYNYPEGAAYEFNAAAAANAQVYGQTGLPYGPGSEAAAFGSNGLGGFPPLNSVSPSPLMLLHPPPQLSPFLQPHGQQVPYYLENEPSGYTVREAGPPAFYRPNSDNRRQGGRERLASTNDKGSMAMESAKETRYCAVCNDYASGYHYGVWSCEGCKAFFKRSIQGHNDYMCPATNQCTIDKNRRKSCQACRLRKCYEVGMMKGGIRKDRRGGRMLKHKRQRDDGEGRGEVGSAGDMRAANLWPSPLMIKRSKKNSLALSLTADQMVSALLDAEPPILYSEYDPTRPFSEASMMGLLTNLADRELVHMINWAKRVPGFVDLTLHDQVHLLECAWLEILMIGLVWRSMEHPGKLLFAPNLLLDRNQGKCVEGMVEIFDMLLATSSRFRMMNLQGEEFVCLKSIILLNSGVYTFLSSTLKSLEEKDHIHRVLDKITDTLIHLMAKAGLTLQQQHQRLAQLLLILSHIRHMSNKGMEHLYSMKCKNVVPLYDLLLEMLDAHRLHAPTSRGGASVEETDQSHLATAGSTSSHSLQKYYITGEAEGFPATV

Estrogen receptor beta [8] = target: T3, Estrogen receptor beta
NS3 = NS3 (Hepatitis C virus, UniProt A3EZJ3); experiment: PubChem AID 2173; parameters: species or system Hepacivirus hominis
NS3, sequence (A3EZJ3 whole entry): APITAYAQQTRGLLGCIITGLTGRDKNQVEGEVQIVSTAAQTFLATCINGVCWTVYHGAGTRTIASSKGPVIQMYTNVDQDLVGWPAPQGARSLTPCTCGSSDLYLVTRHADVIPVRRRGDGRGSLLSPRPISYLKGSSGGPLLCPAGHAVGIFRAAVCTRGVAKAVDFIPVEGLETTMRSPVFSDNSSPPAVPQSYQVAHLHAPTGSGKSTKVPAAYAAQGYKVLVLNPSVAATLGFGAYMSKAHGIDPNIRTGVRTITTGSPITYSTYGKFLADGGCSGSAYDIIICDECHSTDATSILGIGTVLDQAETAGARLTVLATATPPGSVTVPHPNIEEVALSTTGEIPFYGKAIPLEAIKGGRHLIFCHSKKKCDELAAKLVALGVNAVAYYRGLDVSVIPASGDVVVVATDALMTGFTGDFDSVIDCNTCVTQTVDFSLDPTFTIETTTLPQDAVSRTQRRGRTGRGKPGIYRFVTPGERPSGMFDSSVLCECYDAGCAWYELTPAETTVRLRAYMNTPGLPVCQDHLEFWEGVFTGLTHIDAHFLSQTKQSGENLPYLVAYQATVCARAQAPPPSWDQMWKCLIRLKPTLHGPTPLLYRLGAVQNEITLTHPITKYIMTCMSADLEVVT

[9] = target: FAD-linked sulfhydryl oxidase ALR (Homo sapiens, UniProt P55789); experiment: inhibitors of human ALR sulfhydryl oxidase, dose response, biochemical, H2O2 detection, luminescence, cherry-pick (AID 493248)
FAD-linked sulfhydryl oxidase ALR, sequence (P55789 whole entry): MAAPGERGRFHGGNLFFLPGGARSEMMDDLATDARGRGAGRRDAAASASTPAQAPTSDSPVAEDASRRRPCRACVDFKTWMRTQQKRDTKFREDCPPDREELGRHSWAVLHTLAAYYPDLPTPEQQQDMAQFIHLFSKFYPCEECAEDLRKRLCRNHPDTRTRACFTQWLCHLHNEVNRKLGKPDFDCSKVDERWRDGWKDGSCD

Staphylococcus aureus = experiment: Inhibitors of Bacterial Quorum Sensing Structure Activity Relationship (SAR) Analysis: Dose Response Assay. [Related pubchem assays: 700, 527 ]; assay type: functional, organism-based
[10] = target: T5, Neuropeptide Y receptor type 2 (Homo sapiens, UniProt P49146); experiment: NPY-Y2 antagonist potency, selectivity check, dose response, counter-screen for NPY-Y1 antagonist project, cell-based (AID 1278); assay type: functional
T5 sequence (P49146 whole entry): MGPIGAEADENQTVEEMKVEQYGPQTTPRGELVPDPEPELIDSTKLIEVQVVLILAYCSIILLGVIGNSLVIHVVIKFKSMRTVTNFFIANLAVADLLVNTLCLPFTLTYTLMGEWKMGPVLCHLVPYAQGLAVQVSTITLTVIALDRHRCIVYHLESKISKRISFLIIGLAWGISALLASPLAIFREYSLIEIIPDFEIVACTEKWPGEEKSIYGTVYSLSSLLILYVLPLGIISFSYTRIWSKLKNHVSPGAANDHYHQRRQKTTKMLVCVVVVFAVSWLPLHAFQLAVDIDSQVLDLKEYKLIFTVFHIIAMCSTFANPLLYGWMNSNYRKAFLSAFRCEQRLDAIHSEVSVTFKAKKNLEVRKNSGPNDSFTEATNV

[11] = target: T6, Neuropeptide Y receptor type 1 (Homo sapiens, UniProt P25929); experiment: NPY-Y1 receptor antagonist potency, dose response, cell-based (AID 1277); assay type: functional
T6 sequence (P25929 whole entry): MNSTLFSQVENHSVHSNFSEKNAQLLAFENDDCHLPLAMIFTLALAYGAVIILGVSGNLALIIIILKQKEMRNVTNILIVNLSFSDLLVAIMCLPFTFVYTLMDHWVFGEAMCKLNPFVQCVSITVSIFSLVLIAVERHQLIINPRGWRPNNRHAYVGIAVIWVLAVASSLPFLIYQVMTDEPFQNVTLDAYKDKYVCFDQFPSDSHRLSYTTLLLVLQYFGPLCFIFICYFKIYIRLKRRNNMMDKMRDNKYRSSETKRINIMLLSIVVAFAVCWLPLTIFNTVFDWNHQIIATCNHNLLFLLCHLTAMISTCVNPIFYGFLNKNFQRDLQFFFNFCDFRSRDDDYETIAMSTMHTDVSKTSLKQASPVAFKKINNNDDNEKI

[12] = target: Epstein-Barr nuclear antigen 1 (Epstein-Barr virus (strain B95-8) (HHV-4) (Human herpesvirus 4), UniProt P03211); experiment: EBNA-1 inhibitors, dose response, biochemical, fluorescence polarization, 1536-well (AID 2381); parameters: species or system human gammaherpesvirus 4;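 further: fluorescence polarization of a Cy5 DNA probe bound by EBNA-1 protein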
Epstein-Barr nuclear antigen 1, sequence (P03211 whole entry): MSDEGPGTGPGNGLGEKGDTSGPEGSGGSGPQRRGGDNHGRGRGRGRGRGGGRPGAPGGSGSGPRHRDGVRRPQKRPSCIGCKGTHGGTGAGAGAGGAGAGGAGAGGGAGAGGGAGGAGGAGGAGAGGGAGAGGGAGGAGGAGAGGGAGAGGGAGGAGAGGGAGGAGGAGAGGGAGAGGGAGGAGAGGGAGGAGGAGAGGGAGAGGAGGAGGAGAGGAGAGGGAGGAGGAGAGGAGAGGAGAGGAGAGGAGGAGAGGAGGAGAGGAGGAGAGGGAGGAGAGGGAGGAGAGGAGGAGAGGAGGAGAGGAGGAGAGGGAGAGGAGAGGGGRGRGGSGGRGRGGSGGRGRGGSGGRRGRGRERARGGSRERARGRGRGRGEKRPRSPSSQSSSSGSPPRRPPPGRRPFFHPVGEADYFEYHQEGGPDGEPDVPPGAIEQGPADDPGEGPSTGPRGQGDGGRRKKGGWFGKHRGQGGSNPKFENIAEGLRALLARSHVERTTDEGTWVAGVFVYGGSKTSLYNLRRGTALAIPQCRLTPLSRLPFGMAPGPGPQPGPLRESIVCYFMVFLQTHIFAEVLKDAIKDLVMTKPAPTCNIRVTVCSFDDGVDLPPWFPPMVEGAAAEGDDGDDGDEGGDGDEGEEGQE

[13] = target: Lytic switch protein BZLF1 (Epstein-Barr virus (strain B95-8) (HHV-4) (Human herpesvirus 4), UniProt P03206); experiment: EBV ZTA inhibitors, dose response, counter-screen for EBNA-1 inhibitor project, biochemical, fluorescence polarization, Epstein-Barr virus, 1536-well (AID 2377); parameters: species or system human gammaherpesvirus 4;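 further: fluorescence polarization of Cy5-labelled ZRE DNA probe bound by purified Zta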
Lytic switch protein BZLF1, sequence (P03206 whole entry): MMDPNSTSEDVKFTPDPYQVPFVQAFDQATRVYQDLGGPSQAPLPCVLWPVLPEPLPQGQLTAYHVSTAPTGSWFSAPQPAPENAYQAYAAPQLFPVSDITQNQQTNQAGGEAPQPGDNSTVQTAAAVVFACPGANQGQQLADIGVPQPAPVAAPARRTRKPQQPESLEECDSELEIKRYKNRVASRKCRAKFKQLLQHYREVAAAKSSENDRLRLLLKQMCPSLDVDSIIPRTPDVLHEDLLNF

`COc1ccc(Nc2ncnc3scc(-c4ccc(OC)cc4)c23)cc1` was tested, and the EC50 (Streptokinase A) was 10.5 µM (active), the EC50 [1] was 122 µM (active) and the EC50 (Streptococcus [2]) was > 150 µM (not active). The EC50 (Streptococcus [3]) was > 500 µM (not active).
`COC1=C[C@H]2[C@@H]3Cc4ccc(OC)c(O)c4[C@@]2(CCN3C)CC1=O` was tested, and the AC50 (Cytochrome P450 2D6) was 20 µM (inconclusive).
With `O=C(O)C1Nc2c(cccc2[N+](=O)[O-])C2C=CCC12` (configuration not stated) the EC50 (Bcl-2-like protein 10) was 1.2 µM (active).
For `O=S(=O)(Cc1cc(NCc2ccccc2)nc(-c2ccccn2)n1)c1ccccc1`, the EC50 (Streptokinase A) was > 150 µM (not active), the IC50 [4] was 7.88 µM (active) and the EC50 [1] was 21 µM (active). The IC50 [5] was > 67 µM (not active) and the EC50 (Streptococcus [2]) was > 150 µM (not active).
With `C=CCSC1=N/C(=C\C=C\c2ccco2)C(=O)S1` the IC50 (Estrogen receptor beta [6]) was > 50 µM (not active), the IC50 [7] was 5.61 µM (active) and the IC50 (Estrogen receptor) was > 50 µM (not active). The IC50 (Estrogen receptor beta [8]) was 10.3 µM (active) and the IC50 (NS3) was 11 µM (not active).
In the case of `COc1c(F)c(F)c(C(=O)O)c(Nc2ccc(C)cc2C)c1F`, the AC50 [9] is reported as 15.9 µM (active) and the IC50 (Staphylococcus aureus) is reported as 0.579 µM (active).
`COc1ccccc1CN(Cc1cc2cc(C)ccc2nc1O)Cc1nnnn1Cc1ccco1` was tested, and the IC50 [10] was > 35 µM (not active) and the IC50 [11] was 22.7 µM (not active).
`N#Cc1ccc(N2Cc3ccccc3/C2=N/C(=O)Nc2ccc(Cl)cc2)cc1` was tested, and the IC50 [12] was 8.14 µM (active) and the IC50 [13] was > 111 µM (not active).
